In the series the test system is CCRIS mutagenicity, Ames/micronucleus/aberration tests. The series is described as follows: CCRIS mutagenicity studies.
Where [1] appears, read: Test System: AMES SALMONELLA TYPHIMURIUM, Strain/Indicator: TA98, Metabolic Activation: RAT, LIVER, S-9, AROCLOR 1254, Method: STANDARD PLATE.
The mark [2] stands for this setting: Test System: AMES SALMONELLA TYPHIMURIUM, Strain/Indicator: TA100, Metabolic Activation: RAT, LIVER, S-9, AROCLOR 1254, Method: STANDARD PLATE.
[3] abbreviates: Test System: AMES SALMONELLA TYPHIMURIUM, Strain/Indicator: TA1535, Metabolic Activation: RAT, LIVER, S-9, AROCLOR 1254, Method: STANDARD PLATE.
[4] abbreviates: Test System: AMES SALMONELLA TYPHIMURIUM, Strain/Indicator: TA1538, Metabolic Activation: RAT, LIVER, S-9, AROCLOR 1254, Method: STANDARD PLATE.

The source made the active and inactive calls. The rule behind the calls is not given here.

As for `CCC[C@]1(O)CC[C@H]2[C@@H]3CC[C@H]4CC(=O)C[C@H](C)[C@]4(C)[C@H]3CC[C@@]21C`, the mutagenic call is, setting by setting: (End Point: IN VITRO CHROMOSOMAL ABERRATIONS, Test System: HUMAN PERIPHERAL LYMPHOCYTES, Metabolic Activation: NONE) “inactive; negative”; (End Point: IN VITRO CHROMOSOMAL ABERRATIONS, Test System: HUMAN PERIPHERAL LYMPHOCYTES, Metabolic Activation: RAT, LIVER, S-9, AROCLOR 1254) “inactive; negative”; (End Point: IN VIVO MICRONUCLEUS, Test System: BONE MARROW POLYCHROMATIC ERYTHROCYTES, Species: MOUSE, Strain/Sex: NMRI/MALE, FEMALE, Route: SUBCUTANEOUS INJECTION) “inactive; negative”; (Test System: AMES SALMONELLA TYPHIMURIUM, Strain/Indicator: TA98, Metabolic Activation: NONE, Method: PREINCUBATION) “inactive; negative”; (Test System: AMES SALMONELLA TYPHIMURIUM, Strain/Indicator: TA98, Metabolic Activation: NONE, Method: STANDARD PLATE) “inactive; negative”; (Test System: AMES SALMONELLA TYPHIMURIUM, Strain/Indicator: TA98, Metabolic Activation: RAT, LIVER, S-9, AROCLOR 1254, Method: PREINCUBATION) “inactive; negative”. In addition, the mutagenic call is “inactive; negative” under setting [1]; “inactive; negative” (Test System: AMES SALMONELLA TYPHIMURIUM, Strain/Indicator: TA100, Metabolic Activation: NONE, Method: PREINCUBATION); “inactive; negative” (Test System: AMES SALMONELLA TYPHIMURIUM, Strain/Indicator: TA100, Metabolic Activation: NONE, Method: STANDARD PLATE); “inactive; negative” (Test System: AMES SALMONELLA TYPHIMURIUM, Strain/Indicator: TA100, Metabolic Activation: RAT, LIVER, S-9, AROCLOR 1254, Method: PREINCUBATION); “inactive; negative” under setting [2]; “inactive; negative” (Test System: AMES SALMONELLA TYPHIMURIUM, Strain/Indicator: TA1535, Metabolic Activation: NONE, Method: PREINCUBATION). Further, the mutagenic call reads like this: (Test System: AMES SALMONELLA TYPHIMURIUM, Strain/Indicator: TA1535, Metabolic Activation: NONE, Method: STANDARD PLATE) “inactive; negative”; (Test System: AMES SALMONELLA TYPHIMURIUM, Strain/Indicator: TA1535, Metabolic Activation: RAT, LIVER, S-9, AROCLOR 1254, Method: PREINCUBATION) “inactive; negative”; under setting [3], “inactive; negative”; (Test System: AMES SALMONELLA TYPHIMURIUM, Strain/Indicator: TA1537, Metabolic Activation: NONE, Method: PREINCUBATION) “inactive; negative”; (Test System: AMES SALMONELLA TYPHIMURIUM, Strain/Indicator: TA1537, Metabolic Activation: NONE, Method: STANDARD PLATE) “inactive; negative”; (Test System: AMES SALMONELLA TYPHIMURIUM, Strain/Indicator: TA1537, Metabolic Activation: RAT, LIVER, S-9, AROCLOR 1254, Method: PREINCUBATION) “inactive; negative”. Further, the mutagenic call is “inactive; negative” (Test System: AMES SALMONELLA TYPHIMURIUM, Strain/Indicator: TA1537, Metabolic Activation: RAT, LIVER, S-9, AROCLOR 1254, Method: STANDARD PLATE); “inactive; negative” (Test System: AMES SALMONELLA TYPHIMURIUM, Strain/Indicator: TA1538, Metabolic Activation: NONE, Method: PREINCUBATION); “inactive; negative” (Test System: AMES SALMONELLA TYPHIMURIUM, Strain/Indicator: TA1538, Metabolic Activation: NONE, Method: STANDARD PLATE); “inactive; negative” (Test System: AMES SALMONELLA TYPHIMURIUM, Strain/Indicator: TA1538, Metabolic Activation: RAT, LIVER, S-9, AROCLOR 1254, Method: PREINCUBATION); “inactive; negative” under setting [4]; “inactive; negative” (Test System: CHINESE HAMSTER V-79, Strain/Indicator: V-79 (HGPRT)/6-THIOGUANINE, Metabolic Activation: NONE). Besides, where the note is “Test System: CHINESE HAMSTER V-79, Strain/Indicator: V-79 (HGPRT)/6-THIOGUANINE, Metabolic Activation: RAT, LIVER, S-9, AROCLOR 1254”, the mutagenic call is “inactive; negative”.

Turning to `CCCCOc1cc2c(c3ccc4ccccc4c13)CCC2=O`, under setting [2], the mutagenic call was “inactive; negative”.

On to `O=C(COc1ccc(Cl)cc1Cl)N[C@@H](Cc1c[nH]c2ccccc12)C(=O)O`, for which the mutagenic call runs as follows: (Test System: AMES SALMONELLA TYPHIMURIUM, Strain/Indicator: TA97, Metabolic Activation: RAT, LIVER, S-9, AROCLOR 1254, Method: STANDARD PLATE) “inactive; negative”; (Test System: AMES SALMONELLA TYPHIMURIUM, Strain/Indicator: TA97, Metabolic Activation: WOODCHUCK, LIVER, S-9, 3-METHYLCHOLANTHRENE, Method: STANDARD PLATE) “inactive; negative”; under setting [1], “inactive; negative”; (Test System: AMES SALMONELLA TYPHIMURIUM, Strain/Indicator: TA98, Metabolic Activation: WOODCHUCK, LIVER, S-9, 3-METHYLCHOLANTHRENE, Method: STANDARD PLATE) “inactive; negative”; under setting [2], “inactive; negative”; (Test System: AMES SALMONELLA TYPHIMURIUM, Strain/Indicator: TA100, Metabolic Activation: WOODCHUCK, LIVER, S-9, 3-METHYLCHOLANTHRENE, Method: STANDARD PLATE) “inactive; negative”. Besides, the mutagenic call reads like this: under setting [3], “inactive; negative”; (Test System: AMES SALMONELLA TYPHIMURIUM, Strain/Indicator: TA1535, Metabolic Activation: WOODCHUCK, LIVER, S-9, 3-METHYLCHOLANTHRENE, Method: STANDARD PLATE) “inactive; negative”; under setting [4], “inactive; negative”; (Test System: AMES SALMONELLA TYPHIMURIUM, Strain/Indicator: TA1538, Metabolic Activation: WOODCHUCK, LIVER, S-9, 3-METHYLCHOLANTHRENE, Method: STANDARD PLATE) “inactive; negative”.

On to `Cc1cc2cccc3ccc4c5ccccc5cc1c4c32`, for which the mutagenic call (Test System: AMES SALMONELLA TYPHIMURIUM, Strain/Indicator: TA100, Metabolic Activation: RAT, NADPH-FORTIFIED HOMOGENIZED HEPATOCYTES, AROCLOR 1254, Method: PREINCUBATION) is “active; positive”.

Source of the values: PubChem BioAssay AID1259407 (Chemical Carcinogenesis Research Information System (CCRIS), 2018).
